Measurements taken from ChEMBL document CHEMBL1158822, “Anthrabenzoxocinones from Streptomyces sp. as liver X receptor ligands and antibacterial agents” (J Nat Prod, 2005).
Values after ≈ are worked out from the molar mass of the structure shown.

Experiments:
Enterococcus faecalis = assay: Antibacterial activity against vancomycin-sensitive Enterococcus faecalis CL8516; format: functional
Escherichia coli = assay: Antibacterial activity against lpxC mutant gene expressing Escherichia coli MB4902; format: functional
Staphylococcus aureus [1] = assay: Inhibition of type II fatty acid synthesis in Staphylococcus aureus using n-octanoyl-CoA and [14C]malonyl CoA substrate
Streptococcus pneumoniae = assay: Antibacterial activity against Streptococcus pneumoniae MB212; format: functional
Staphylococcus aureus [2] = assay: Antibacterial activity against methicillin-sensitive Staphylococcus aureus MB2685; format: functional
Staphylococcus aureus [3] = assay: Antibacterial activity against methicillin-resistant Staphylococcus aureus COL MB5393; format: functional
Enterococcus faecium = assay: Antibacterial activity against vancomycin-resistant Enterococcus faecium CL5791; format: functional
Staphylococcus aureus [4] = assay: Inhibition of protein biosynthesis in Staphylococcus aureus
[5] = biological target: T1, Oxysterols receptor LXR-beta (Homo sapiens, UniProt P55055); assay: Displacement of [3H2]F3-methyl AA from LXRbeta by scintillation proximity assay
T1 sequence (P55055 whole entry): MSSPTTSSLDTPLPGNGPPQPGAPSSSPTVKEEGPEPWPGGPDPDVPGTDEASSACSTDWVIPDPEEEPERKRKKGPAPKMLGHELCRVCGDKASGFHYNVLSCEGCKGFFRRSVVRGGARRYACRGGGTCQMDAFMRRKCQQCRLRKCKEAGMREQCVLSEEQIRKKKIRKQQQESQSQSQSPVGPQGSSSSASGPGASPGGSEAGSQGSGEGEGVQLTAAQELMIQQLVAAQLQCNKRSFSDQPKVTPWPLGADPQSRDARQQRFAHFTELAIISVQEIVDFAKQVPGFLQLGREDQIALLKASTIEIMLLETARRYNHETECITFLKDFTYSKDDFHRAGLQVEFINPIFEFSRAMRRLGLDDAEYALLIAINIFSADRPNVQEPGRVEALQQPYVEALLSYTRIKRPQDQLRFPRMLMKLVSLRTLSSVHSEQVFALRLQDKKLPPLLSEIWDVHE

Staphylococcus aureus [6] = assay: Inhibition of RNA biosynthesis in Staphylococcus aureus
Staphylococcus aureus [7] = assay: Inhibition of DNA biosynthesis in Staphylococcus aureus
Staphylococcus aureus [8] = assay: Inhibition of phospholipid biosynthesis in Staphylococcus aureus
[9] = biological target: T2, Oxysterols receptor LXR-alpha (Homo sapiens, UniProt Q13133); assay: Displacement of [3H2]F3-methyl AA from LXRalpha by scintillation proximity assay
T2 sequence (Q13133 whole entry): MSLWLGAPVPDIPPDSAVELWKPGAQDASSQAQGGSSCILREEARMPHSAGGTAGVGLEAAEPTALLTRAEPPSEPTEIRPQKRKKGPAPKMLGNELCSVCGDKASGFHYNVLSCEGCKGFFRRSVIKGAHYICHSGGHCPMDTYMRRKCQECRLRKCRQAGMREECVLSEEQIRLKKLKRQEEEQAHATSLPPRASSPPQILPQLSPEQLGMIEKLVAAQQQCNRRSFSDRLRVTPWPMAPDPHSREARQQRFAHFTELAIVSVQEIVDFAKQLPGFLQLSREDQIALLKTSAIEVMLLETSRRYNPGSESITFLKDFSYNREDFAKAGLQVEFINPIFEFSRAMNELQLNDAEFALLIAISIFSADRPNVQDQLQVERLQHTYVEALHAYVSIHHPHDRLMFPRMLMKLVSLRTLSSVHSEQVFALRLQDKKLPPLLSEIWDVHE

| Structure (SMILES) | MIC (Enterococcus faecalis) [µg/mL] | MIC (Escherichia coli) [µg/mL] | IC50 (Staphylococcus aureus [1]) [µg/mL] | MIC (Streptococcus pneumoniae) [µg/mL] | MIC (Staphylococcus aureus [2]) [µg/mL] | MIC (Staphylococcus aureus [3]) [µg/mL] | MIC (Enterococcus faecium) [µg/mL] | IC50 (Staphylococcus aureus [4]) [µg/mL] | IC50 [5] [µM] | IC50 (Staphylococcus aureus [6]) [µg/mL] | IC50 (Staphylococcus aureus [7]) [µg/mL] | IC50 (Staphylococcus aureus [8]) [µg/mL] | IC50 [9] [µM] |
| --- | --- | --- | --- | --- | --- | --- | --- | --- | --- | --- | --- | --- | --- |
| CO[C@H]1/C=C/O[C@@]2(C)Oc3c(C)c(O)c4c(O)c(c(/C=N/N5CCN(C)CC5)c(O)c4c3C2=O)NC(=O)/C(C)=C\C=C\[C@H](C)[C@H](O)[C@@H](C)[C@@H](O)[C@@H](C)[C@H](OC(C)=O)[C@@H]1C [RIFAMPIN] | 0.008 (≈ 0.00972 µM) | 0.02 (≈ 0.0243 µM) | > 250 | 0.004 (≈ 0.00486 µM) | 0.002 (≈ 0.00243 µM) | 0.002 (≈ 0.00243 µM) | 0.04 (≈ 0.0486 µM) |  |  |  |  |  |  |
| Cc1cc(O)cc2c1[C@@H]1O[C@@](C)(Cc3cc4c(c(O)c31)C(=O)c1c(O)cc(O)cc1C4(C)C)O2 | 1 (≈ 2.17 µM) | 1 (≈ 2.17 µM) | 245 (≈ 532 µM) | 1 (≈ 2.17 µM) | 1 (≈ 2.17 µM) | 0.5 (≈ 1.09 µM) | 0.5 (≈ 1.09 µM) |  |  |  |  |  |  |
| O=C(N[C@H](CO)[C@H](O)c1ccc([N+](=O)[O-])cc1)C(Cl)Cl [CHLORAMPHENICOL] | 1.56 (≈ 4.83 µM) | 1.56 (≈ 4.83 µM) | > 250 | 1.56 (≈ 4.83 µM) | 6.25 (≈ 19.3 µM) | 6.25 (≈ 19.3 µM) | 6.25 (≈ 19.3 µM) |  |  |  |  |  |  |
| COc1cc(C)c2c(c1)O[C@@]1(C)Cc3cc4c(c(O)c3[C@@H]2O1)C(=O)c1c(O)c(Cl)c(O)c(Cl)c1C4(C)C | 1 (≈ 1.84 µM) | 0.5 (≈ 0.92 µM) | 11.4 (≈ 21 µM) | 1 (≈ 1.84 µM) | 0.5 (≈ 0.92 µM) | 1 (≈ 1.84 µM) | 2 (≈ 3.68 µM) | 0.21 (≈ 0.386 µM) | > 15 | 0.21 (≈ 0.386 µM) | 0.21 (≈ 0.386 µM) | 0.21 (≈ 0.386 µM) | 10 |
| Cc1cc(O)cc2c1[C@H]1O[C@](C)(Cc3cc4c(c(O)c31)C(=O)c1c(O)cc(O)cc1C4(C)C)O2 | 0.5 (≈ 1.09 µM) | 2 (≈ 4.34 µM) | 288 (≈ 625 µM) | 1 (≈ 2.17 µM) | 2 (≈ 4.34 µM) | 2 (≈ 4.34 µM) | 2 (≈ 4.34 µM) | 1 (≈ 2.17 µM) |  | 1 (≈ 2.17 µM) | 1 (≈ 2.17 µM) | 1 (≈ 2.17 µM) |  |
